Assay results reported in ChEMBL document CHEMBL1131583, “Structure-based design and synthesis of lipophilic 2,4-diamino-6-substituted quinazolines and their evaluation as inhibitors of dihydrofolate reductases and potential antitumor agents” (J Med Chem, 1998).

Tests used:
Dihydrofolate reductase [1] = biological target: T1, Dihydrofolate reductase (Lactobacillus casei, UniProt P00381); assay: Inhibitory activity against Dihydrofolate reductase from Lactobacillus casei ( lcDHFR); design: species or system Lacticaseibacillus casei
T1 sequence (P00381 whole entry): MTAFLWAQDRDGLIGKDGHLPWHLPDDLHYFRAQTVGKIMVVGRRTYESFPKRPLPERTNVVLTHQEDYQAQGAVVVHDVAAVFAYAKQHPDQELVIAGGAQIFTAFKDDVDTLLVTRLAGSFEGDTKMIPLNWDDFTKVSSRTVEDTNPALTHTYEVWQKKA

[2] = biological target: T2, Bifunctional dihydrofolate reductase-thymidylate synthase (Toxoplasma gondii, UniProt Q07422)
T2 sequence (Q07422 whole entry): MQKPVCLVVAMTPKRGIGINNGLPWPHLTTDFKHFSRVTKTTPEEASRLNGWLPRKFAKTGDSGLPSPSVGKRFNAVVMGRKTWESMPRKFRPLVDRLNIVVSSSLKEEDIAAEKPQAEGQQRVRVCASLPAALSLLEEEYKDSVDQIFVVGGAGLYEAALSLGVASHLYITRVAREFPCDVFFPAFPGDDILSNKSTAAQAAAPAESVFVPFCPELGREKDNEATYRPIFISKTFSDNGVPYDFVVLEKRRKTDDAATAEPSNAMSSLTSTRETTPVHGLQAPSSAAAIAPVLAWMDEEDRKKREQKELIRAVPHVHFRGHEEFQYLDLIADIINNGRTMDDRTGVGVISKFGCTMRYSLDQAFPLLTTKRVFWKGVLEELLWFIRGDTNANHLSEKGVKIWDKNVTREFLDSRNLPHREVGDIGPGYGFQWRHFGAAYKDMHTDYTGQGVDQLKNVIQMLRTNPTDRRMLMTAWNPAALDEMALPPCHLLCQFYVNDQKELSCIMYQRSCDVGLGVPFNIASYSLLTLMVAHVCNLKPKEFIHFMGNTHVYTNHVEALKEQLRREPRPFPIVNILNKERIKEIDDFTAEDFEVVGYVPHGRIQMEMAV
Description: Inhibitory activity against Dihydrofolate reductase from Toxoplasma gondii (tgDHFR)

Dihydrofolate reductase [3] = biological target: T3, Dihydrofolate reductase (Rattus norvegicus, UniProt Q920D2); assay: Inhibitory activity against Dihydrofolate reductase from rat liver (rlDHFR)
T3 sequence (Q920D2 whole entry): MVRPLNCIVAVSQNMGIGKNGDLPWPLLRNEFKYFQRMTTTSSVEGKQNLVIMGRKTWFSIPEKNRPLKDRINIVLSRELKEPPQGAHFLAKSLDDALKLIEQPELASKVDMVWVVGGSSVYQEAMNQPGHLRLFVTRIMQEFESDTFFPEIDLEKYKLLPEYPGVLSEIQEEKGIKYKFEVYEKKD

Dihydrofolate reductase [4] = biological target: T4, Dihydrofolate reductase (Pneumocystis carinii, UniProt P16184)
T4 sequence (P16184 whole entry): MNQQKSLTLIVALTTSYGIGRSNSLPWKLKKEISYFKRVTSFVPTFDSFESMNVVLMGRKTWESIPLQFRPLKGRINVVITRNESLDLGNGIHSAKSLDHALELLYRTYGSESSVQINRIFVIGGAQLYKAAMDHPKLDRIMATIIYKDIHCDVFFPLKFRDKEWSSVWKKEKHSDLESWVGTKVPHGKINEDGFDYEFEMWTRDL
Description: Inhibitory activity against Dihydrofolate reductase from Pneumocystis carinii (pcDHFR)

Dihydrofolate reductase [5] = biological target: T5, Dihydrofolate reductase (Homo sapiens, UniProt P00374)
T5 sequence (P00374 whole entry): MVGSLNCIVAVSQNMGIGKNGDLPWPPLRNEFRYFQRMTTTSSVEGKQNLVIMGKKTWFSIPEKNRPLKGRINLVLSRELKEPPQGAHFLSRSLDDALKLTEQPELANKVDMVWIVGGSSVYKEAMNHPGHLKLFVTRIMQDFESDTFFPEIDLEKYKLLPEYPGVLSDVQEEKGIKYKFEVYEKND
Description: Inhibitory activity against Dihydrofolate reductase from recombinant human (hDHFR)

[6] = biological target: T2, Bifunctional dihydrofolate reductase-thymidylate synthase; assay: Inhibition of recombinant Dihydrofolate reductase from Toxoplasma gondii (tgDHFR)
Dihydrofolate reductase [7] = biological target: T1, Dihydrofolate reductase
Description: Inhibitory activity against Dihydrofolate reductase from Lactobacillus casei (lcDHFR)

[8] = biological target: T2, Bifunctional dihydrofolate reductase-thymidylate synthase; assay: Inhibitory activity against recombinant Dihydrofolate reductase from Toxoplasma gondii (tgDHFR)
[9] = Partition coefficient (logP); format: physicochemical; conditions: octanol/water

| Compound | IC50 (Dihydrofolate reductase [3]) [nM] | IC50 (Dihydrofolate reductase [4]) [nM] | IC50 (Dihydrofolate reductase [5]) [nM] | IC50 (Dihydrofolate reductase [7]) [nM] | logP [9] | IC50 (Dihydrofolate reductase [1]) [nM] | IC50 [2] [nM] | IC50 [6] [nM] | IC50 [8] [nM] |
| --- | --- | --- | --- | --- | --- | --- | --- | --- | --- |
| COc1cc(CN(C)c2ccc3nc(N)nc(N)c3c2)cc(OC)c1 | 8.2 | 23.8 | 11 | – | – | 37 | 9.3 | 4.7 | – |
| COc1cc(CNc2ccc3nc(N)nc(N)c3c2)cc(OC)c1OC | 900 | 6800 | 23000 | 2800 | – | – | 84 | 920 | – |
| COc1cc(OC)c(CNc2ccc3nc(N)nc(N)c3c2)c(OC)c1 | 22700 | 116000 | 25000 | 37000 | – | – | – | – | – |
| CN(Cc1cccc2c1CCCC2)c1ccc2nc(N)nc(N)c2c1 | 17 | 17 | 27 | 21 | – | – | – | – | – |
| COc1cc(OC)c(OC)cc1CNc1ccc2nc(N)nc(N)c2c1 | 1600 | 5400 | – | 1600 | – | – | 124 | 540 | – |
| Nc1nc(N)c2cc(NCc3ccccc3)ccc2n1 | 660 | 8700 | 2400 | 2700 | – | – | 320 | – | 1400 |
| COc1ccc(CNc2ccc3nc(N)nc(N)c3c2)c(OC)c1OC | 1300 | 4900 | 27000 | 2000 | – | – | 190 | 810 | – |
| COc1cc(CNc2ccc3nc(N)nc(N)c3c2)cc(OC)c1 | 840 | 2200 | 28000 | 2300 | – | – | 120 | 840 | – |
| COc1ccc(OC)c(CNc2ccc3nc(N)nc(N)c3c2)c1 | 1100 | 4600 | 28000 | 3000 | – | – | 160 | 1100 | – |
| COc1cc(NCc2ccc3nc(N)nc(N)c3c2C)cc(OC)c1OC [TRIMETREXATE] | – | – | – | 260 | – | – | – | – | – |

Now from value to compound, other results behind:

| IC50 (Dihydrofolate reductase [3]) [nM] | IC50 (Dihydrofolate reductase [4]) [nM] | IC50 (Dihydrofolate reductase [5]) [nM] | IC50 (Dihydrofolate reductase [7]) [nM] | logP [9] | Compound | IC50 (Dihydrofolate reductase [1]) [nM] | IC50 [2] [nM] | IC50 [6] [nM] | IC50 [8] [nM] |
| --- | --- | --- | --- | --- | --- | --- | --- | --- | --- |
| 43 | 100 | 50 | 120 | – | COc1ccc(CN(C)c2ccc3nc(N)nc(N)c3c2)c(OC)c1 | – | 39 | 3.9 | – |
| 1200 | 4400 | – | 2100 | – | COc1ccc(CNc2ccc3nc(N)nc(N)c3c2)c(OC)c1 | – | 170 | 780 | – |
| 19 | 52 | 140 | 59 | – | COc1ccc(CN(C)c2ccc3nc(N)nc(N)c3c2)c(OC)c1OC | – | 17 | 5.4 | – |
| – | – | – | – | 1.87 | COc1ccc(OC)c(CN(C)c2cnc3nc(N)nc(N)c3c2)c1 | – | – | – | – |
| – | 87 | – | – | – | COc1ccc(OC)c(CN(C)c2ccc3nc(N)nc(N)c3c2)c1 | 130 | 30 | 3.9 | – |
| – | – | – | – | 1.32 | COc1ccc(OC)c(CNc2cnc3nc(N)nc(N)c3c2)c1 | – | – | – | – |
| – | – | – | – | 0.89 | COc1cc(CNc2cnc3nc(N)nc(N)c3c2)cc(OC)c1OC | – | 395 | – | – |
| – | – | – | – | 1.87 | COc1cc(CN(C)c2cnc3nc(N)nc(N)c3c2)cc(OC)c1 | – | – | – | – |
